Source: patent US20180185332A1, “Leukotriene Receptor Antagonists and Their Derivatives for Use as Antibacterial Agents” (University of East London, priority 2013, published 2018)
Converted amounts (≈) assume the structure as drawn.

How the values were obtained:
[1] = system: Bacillus subtilis; experiment: Minimum inhibitory concentration (MIC) in broth; format: cell-based; conditions: 10^5 cfu/mL, overnight at 37° C., no visible growth
Protocol: (§1) Zafirlukast (Sigma Aldrich, UK) was resuspended in Dimethyl Sulfoxide to a concentration of 16 mM. A minimum inhibitory concentration (MIC) was conducted using various bacterial broth solutions containing between the 0 and 4 mM zafirlukast. 10^5 cfu/mL of test organism was added to each tube before incubation overnight at 37° C. The MIC was taken to be the concentration at which no visible growth was observed. In addition, zone inhibition studies were carried out using standard techniques.
(§2) The bacterial species tested included Staphylococcus aureus, methicillin resistant Staphylococcus aureus, Enterococcus faecalis, Bacillus subtilis, Streptococcus pneumoniae, and Clostridium difficile.
(§3) MIC is well known to the skilled person and is defined as the lowest concentration of agent which prevents visible growth of the bacterial strain under investigation.

[2] = system: Staphylococcus aureus; experiment: Minimum inhibitory concentration (MIC) in broth; format: cell-based; conditions: 10^5 cfu/mL, overnight at 37° C., no visible growth
Protocol: as §1, §2, §3

[3] = system: MRSA; experiment: Minimum inhibitory concentration (MIC) in broth; format: cell-based, methicillin resistant Staphylococcus aureus; conditions: Staphylococcus aureus, 10^5 cfu/mL, overnight at 37° C., no visible growth
Protocol: as §1, §2, §3

[4] = system: Mycobacterium smegmatis; conditions: Pinault et al 2013; cited from earlier work
[5] = system: Mycobacterium tuberculosis; conditions: Pinault et al 2013; cited from earlier work
[6] = system: E. coli; conditions: Pinault et al 2013; cited from earlier work
[7] = target: Lsr2 (Mycobacterium tuberculosis, UniProt P9WIP7); conditions: Pinault et al 2013; cited from earlier work
[8] = in vivo, po; cited from earlier work
[9] = system: S. aureus; experiment: Bactericidal activity, viable counts (percentage survival); format: cell-based; conditions: 3 hrs at 37° C., FIG. 2
Protocol: (§4) 10^5 cfu/mL of bacterial culture was incubated in the presence of various concentrations of zafirlukast for a period of 3 hrs at 37° C. At the end of this incubation, viable counts were taken and results recoded as percentage survival (as compared to the drug free control).

[10] = system: B. subtilis; experiment: as above; format: cell-based; conditions: 3 hrs at 37° C., FIG. 2
Protocol: as §4

| SMILES | MIC [1] | MIC [2] | MIC [3] | bactericidal activity against M. smegmatis [4] | growth of Mycobacterium smegmatis [4] | growth of Mycobacterium tuberculosis [5] | effect on the growth of E. coli [6] | complexation of Lsr2 with DNA [7] | plasma half-life [8] | bactericidal activity [9] | bactericidal activity [10] |
| --- | --- | --- | --- | --- | --- | --- | --- | --- | --- | --- | --- |
| CO/N=C(\C(=O)N[C@@H]1C(=O)N2C(C(=O)O)=C(CSc3nc(=O)c(=O)[nH]n3C)CS[C@H]12)c1csc(N)n1 [Ceftriaxone] | > 29 µM | 2 µM (≈ 1.11 µg/mL) | 22 µM (≈ 12.2 µg/mL) | – | – | – | – | – | – | – | – |
| O=C(O)c1cn(C2CC2)c2cc(N3CCNCC3)c(F)cc2c1=O [Ciprofloxacin] | > 12 µM | 3 µM (≈ 0.994 µg/mL) | 40 µM (≈ 13.3 µg/mL) | – | – | – | – | – | – | – | – |
| COc1cc(C(=O)NS(=O)(=O)c2ccccc2C)ccc1Cc1cn(C)c2ccc(NC(=O)OC3CCCC3)cc12 [Zafirlukast, [3-[2-Methoxy-4-(toluene-2-sulfonylaminocarbonyl)benzyl]-I-methyl-IH-indol-5-yl]carbamic acid cyclopentyl ester] | 6 µM (≈ 3.45 µg/mL) | 30 µM (≈ 17.3 µg/mL) | 6 µM (≈ 3.45 µg/mL) | exhibits bactericidal activity | inhibits the growth | inhibits the growth | no effect | inhibits the complexation | approximately 10 hours | bactericidal activity | bactericidal activity |
